Earlier results, collected in US20210361700A1 (priority 2020, published 2021).

Tested on: influenza
Conditions: older mice

Vitamin E
resistance to and pathogenesis of influenza: Increases resistance to and
